According to a melting point compilation (Tetko et al.; mined from patent text by program, amines drawn as free bases though some values may be those of a salt):

Row | Structure (SMILES) | melting point [°C]
1 | CC(C)COc1ccc(-n2cc(C(=O)O)cn2)cc1C#N | 192 to 194
2 | CC1(C)CN(Cc2ccccc2[N+](=O)[O-])C(=O)S1 | 128 to 129
3 | O=Cc1cc(-c2cccc(Cl)c2)c2cc(C(c3ccc(Cl)cc3)c3cccnc3)ccc2n1 (configuration not stated) | 168
4 | NS(=O)(=O)c1ccc(-n2nc(C(F)(F)F)cc2-c2nc3ccccc3s2)cc1 | 254 to 256
5 | C=C(C)Cc1cc(C=O)cc(OC)c1O | 53 to 54
6 | Cc1nc(N)c2nc(CONC(C)C)n(CCCCNC(=O)C(C)C)c2c1C | 156 to 157
7 | CC1OC(O)CC(O)C1O (configuration not stated) | 102 to 105
8 | CC(=O)c1ccc2c(c1)[C@@H](O)[C@H](Br)C(C)(C)O2 (relative stereo) | 84 to 86
9 | CN1C(=O)[C@@](NC(=O)Nc2cccc(Nc3nnn[nH]3)c2)(C2CCCCC2)N=Cc2ccccc21 | 190 to 193
10 | CC(CN1CCCC1)N1c2ccc(Cl)cc2Sc2ccc(C3=NC4CCCCC4N3)cc21 (racemic) | 120
11 | CC(=O)n1cc(C#N)c(-c2cccc(Cl)c2Cl)c1 | 136 to 137
12 | COc1nc(C)nc(NC(=O)NS(=O)(=O)c2ccccc2C(=O)O)n1 | 157 to 158
13 | CCOC(=O)Cn1cnc2c(Cl)nc(NC(=O)c3ccc(C4CCCCC4)cc3)nc21 | 90 to 107
14 | C[C@]12CCC(=O)N[C@@H]1CCc1cc(Sc3ccccc3F)ccc12 | 196 to 198
15 | Cc1nc(-c2ccc(C(F)(F)F)cc2)oc1COc1ccc(OCc2nn[nH]n2)cc1 | 156
16 | CC1(N2C(=O)c3ccc(CNC(=O)c4ccc(S(C)(=O)=O)cc4)cc3C2=O)CCC(=O)NC1=O (configuration not stated) | 166 to 168
17 | COc1ccc(C2(C3CCCCC3=O)CCC(=O)CC2)c2c1OCCO2 (configuration not stated) | 268 to 269
18 | COc1cc(/C=C/C=C/CO)ccc1OCc1nc(-c2ccccc2)oc1C | 149 to 151
19 | O=C(O)C(O)(c1ccc(F)cc1)c1ccc(F)cc1 | 133 to 136

Row | Structure (SMILES) | melting point [°C]
20 | CN(C)CCNC(=O)c1ccc(-c2ccc3nnn(Cc4ccc5ncccc5c4)c3n2)cc1 | 122 to 125
21 | CC[C@@H](c1ccccc1)N(Cc1ccc(S(C)(=O)=O)cc1)S(=O)(=O)c1ccc(Cl)cc1 | 61 to 63
22 | O=c1c(Cn2cncn2)cc2cc(Br)ccc2n1-c1ccccc1 | 237 to 240
23 | Cc1cc(C2=NO[C@@](c3cc(Cl)c(F)c(Cl)c3)(C(F)(F)F)C2)ccc1C(=O)NC1CS(=O)(=O)C1 | 134 to 136
24 | O=C1C(=O)c2ccccc2C2=C1SCC1(CCN(CC(O)c3ccccc3)CC1)O2 (configuration not stated) | 193 to 195
25 | CC(C(=O)O)c1ccc(C2=CCCCC2)cc1 (configuration not stated) | 101 to 102
26 | CC(C)Cn1c(=O)n(C)c(=O)c2cnc(N)nc21 | 249 to 250
27 | COc1ccc(C(=O)Nc2ccc(F)c(F)c2)cc1NS(=O)(=O)c1ccc([N+](=O)[O-])cc1 | 234 to 236
28 | CC(CO)(CO)NS(=O)(=O)c1cc(NC(=O)c2cnn3c(C(F)(F)F)cc(-c4ccc(C(F)(F)F)cc4)nc23)c(Cl)s1 | 201
29 | CCOC(=O)c1cnc2ccc(I)cn2c1=O | 166 to 168
30 | CCSC(c1ccc(Cl)cc1Cl)C(C(=O)C(C)(C)CF)n1cncn1 (configuration not stated) | 130
31 | CCN1C[C@@H](O)[C@H](Oc2ccc(C(C)=O)cc2OC)C1 (relative stereo) | 121 to 123
32 | COc1ccnc2c1cc(C)n2Cc1ccccc1 | 129 to 131
33 | O=C(Nc1ccc(Oc2ccccc2)cc1)N1CCN(c2ncnc3cc(F)c(F)cc23)CC1 | 177 to 178
34 | CCCCCCCCCCc1c(C(=O)OCC)sc2c1sc1c3sc(C(=O)OCC)c(CCCCCCCCCC)c3sc21 | 130 to 132
35 | O=C1c2ccccc2-n2cnc(-c3nc(CCl)cs3)c2[C@@H]2CCN12 | 248 to 249
36 | CC(C)Oc1cc(CCCOc2nn(Cc3ccccc3)cc2CC(=O)O)n(Cc2ccc(Cl)cc2OC(C)C)n1 | 113 to 115
37 | c1cncc(NC2CCNCC2)c1 | 127 to 129
